Species on record: Rattus norvegicus
Test: DrugMatrix - Regimen: Daily Repeat
Type: toxicity, organism-based, Sprague-Dawley
Parameters: regimen Daily Repeat, gender Male, age 6-8 weeks
Conditions: in vivo, po, route oral GAVAGE, vehicle 100 % WATER; for ABSOLUTE BASOPHIL / ABSOLUTE EOSINOPHIL / ABSOLUTE LYMPHOCYTE / ABSOLUTE MONOCYTE / ABSOLUTE SEGMENTED NEUTROPHIL / BASOPHIL / EOSINOPHIL / ERYTHROCYTE COUNT / HEMATOCRIT / HEMOGLOBIN / LEUKOCYTE COUNT / LYMPHOCYTE / MEAN CORPUSCULAR HEMOGLOBIN / MEAN CORPUSCULAR HEMOGLOBIN CONCENTRATION / MEAN CORPUSCULAR VOLUME / MONOCYTE / NEUTROPHIL / NUCLEATED RED BLOOD CELLS / PLATELET COUNT: tissue Blood; for ALANINE AMINOTRANSFERASE / ALBUMIN / ALKALINE PHOSPHATASE / ASPARTATE AMINOTRANSFERASE / BLOOD UREA NITROGEN / CARBON DIOXIDE / CHLORIDE / CHOLESTEROL / CREATINE PHOSPHOKINASE / CREATININE / GLUCOSE / LACTATE DEHYDROGENASE / LIPASE / PHOSPHORUS / POTASSIUM / SODIUM / TOTAL BILIRUBIN / TOTAL PROTEIN / URIC ACID: tissue Plasma
[1] = 0 mg/kg, 72 h, dose level Control, time 3 day
[2] = 0 mg/kg, 120 h, dose level Control, time 5 day
[3] = 1000 mg/kg, 72 h, dose level High, time 3 day
[4] = 1000 mg/kg, 120 h, dose level High, time 5 day

Cc1cc(NS(=O)(=O)c2ccc(N)cc2)no1 [SULFAMETHOXAZOLE]
ABSOLUTE BASOPHIL [1]: 0 CELLS/uL | ABSOLUTE EOSINOPHIL [1]: 102 CELLS/uL | ABSOLUTE LYMPHOCYTE [1]: 12758 CELLS/uL | ABSOLUTE MONOCYTE [1]: 197.17 CELLS/uL | ABSOLUTE SEGMENTED NEUTROPHIL [1]: 1259.5 CELLS/uL | BASOPHIL [1]: 0% | EOSINOPHIL [1]: 0.83% | ERYTHROCYTE COUNT [1]: 5.3 x10E6/uL | HEMATOCRIT [1]: 33.47% | HEMOGLOBIN [1]: 13.12 G/DL | LEUKOCYTE COUNT [1]: 14.32 x10E3/uL | LYMPHOCYTE [1]: 89.33% | MEAN CORPUSCULAR HEMOGLOBIN [1]: 24.8 pg | MEAN CORPUSCULAR HEMOGLOBIN CONCENTRATION [1]: 39.18 G/DL | MEAN CORPUSCULAR VOLUME [1]: 63.25 fL | MONOCYTE [1]: 1.33% | NEUTROPHIL [1]: 8.5% | NUCLEATED RED BLOOD CELLS [1]: 0 /100WBC | PLATELET COUNT [1]: 1313.17 x10E3/uL | ALANINE AMINOTRANSFERASE [1]: 52.67 u/L | ALBUMIN [1]: 4.05 G/DL | ALKALINE PHOSPHATASE [1]: 372 u/L | ASPARTATE AMINOTRANSFERASE [1]: 82.83 u/L | BLOOD UREA NITROGEN [1]: 15 mg/dL | CARBON DIOXIDE [1]: 25.67 mmol/L | CHLORIDE [1]: 102.17 MEQ/L | CHOLESTEROL [1]: 68.83 mg/dL | CREATINE PHOSPHOKINASE [1]: 285 u/L | CREATININE [1]: 0.18 mg/dL | GLUCOSE [1]: 149.17 mg/dL | LACTATE DEHYDROGENASE [1]: 263.83 u/L | LIPASE [1]: 10.17 u/L | PHOSPHORUS [1]: 12.58 mg/dL | POTASSIUM [1]: 6.58 MEQ/L | SODIUM [1]: 144.22 MEQ/L | TOTAL BILIRUBIN [1]: 0.22 mg/dL | TOTAL PROTEIN [1]: 5.83 G/DL | URIC ACID [1]: 1.58 mg/dL | ABSOLUTE BASOPHIL [2]: 0 CELLS/uL | ABSOLUTE EOSINOPHIL [2]: 24 CELLS/uL | ABSOLUTE LYMPHOCYTE [2]: 11134.17 CELLS/uL | ABSOLUTE MONOCYTE [2]: 56.33 CELLS/uL | ABSOLUTE SEGMENTED NEUTROPHIL [2]: 1235.5 CELLS/uL | BASOPHIL [2]: 0% | EOSINOPHIL [2]: 0.17% | ERYTHROCYTE COUNT [2]: 5.68 x10E6/uL | HEMATOCRIT [2]: 35.72% | HEMOGLOBIN [2]: 13.93 G/DL | LEUKOCYTE COUNT [2]: 12.45 x10E3/uL | LYMPHOCYTE [2]: 89.5% | MEAN CORPUSCULAR HEMOGLOBIN [2]: 24.63 pg | MEAN CORPUSCULAR HEMOGLOBIN CONCENTRATION [2]: 39.13 G/DL | MEAN CORPUSCULAR VOLUME [2]: 62.97 fL | MONOCYTE [2]: 0.5% | NEUTROPHIL [2]: 9.83% | NUCLEATED RED BLOOD CELLS [2]: 0 /100WBC | PLATELET COUNT [2]: 1204 x10E3/uL | ALANINE AMINOTRANSFERASE [2]: 59.5 u/L | ALBUMIN [2]: 4.38 G/DL | ALKALINE PHOSPHATASE [2]: 415.67 u/L | ASPARTATE AMINOTRANSFERASE [2]: 91.33 u/L | BLOOD UREA NITROGEN [2]: 17 mg/dL | CARBON DIOXIDE [2]: 26.33 mmol/L | CHLORIDE [2]: 104.17 MEQ/L | CHOLESTEROL [2]: 77 mg/dL | CREATINE PHOSPHOKINASE [2]: 249.67 u/L | CREATININE [2]: 0.21 mg/dL | GLUCOSE [2]: 148.33 mg/dL | LACTATE DEHYDROGENASE [2]: 168.5 u/L | LIPASE [2]: 10.17 u/L | PHOSPHORUS [2]: 12.92 mg/dL | POTASSIUM [2]: 7.09 MEQ/L | SODIUM [2]: 148.37 MEQ/L | TOTAL BILIRUBIN [2]: 0.23 mg/dL | TOTAL PROTEIN [2]: 6.3 G/DL | URIC ACID [2]: 1.77 mg/dL | ABSOLUTE BASOPHIL [3]: 0 CELLS/uL | ABSOLUTE EOSINOPHIL [3]: 124.33 CELLS/uL | ABSOLUTE LYMPHOCYTE [3]: 12097 CELLS/uL | ABSOLUTE MONOCYTE [3]: 47.67 CELLS/uL | ABSOLUTE SEGMENTED NEUTROPHIL [3]: 1331 CELLS/uL | BASOPHIL [3]: 0% | EOSINOPHIL [3]: 1% | ERYTHROCYTE COUNT [3]: 5.34 x10E6/uL | HEMATOCRIT [3]: 34.63% | HEMOGLOBIN [3]: 13.53 G/DL | LEUKOCYTE COUNT [3]: 13.6 x10E3/uL | LYMPHOCYTE [3]: 89% | MEAN CORPUSCULAR HEMOGLOBIN [3]: 25.37 pg | MEAN CORPUSCULAR HEMOGLOBIN CONCENTRATION [3]: 39.07 G/DL | MEAN CORPUSCULAR VOLUME [3]: 64.87 fL | MONOCYTE [3]: 0.33% | NEUTROPHIL [3]: 9.67% | NUCLEATED RED BLOOD CELLS [3]: 0 /100WBC | PLATELET COUNT [3]: 1220 x10E3/uL | ALANINE AMINOTRANSFERASE [3]: 53.33 u/L | ALBUMIN [3]: 4.13 G/DL | ALKALINE PHOSPHATASE [3]: 298.33 u/L | ASPARTATE AMINOTRANSFERASE [3]: 88.67 u/L | BLOOD UREA NITROGEN [3]: 16 mg/dL | CARBON DIOXIDE [3]: 26 mmol/L | CHLORIDE [3]: 101 MEQ/L | CHOLESTEROL [3]: 79.67 mg/dL | CREATINE PHOSPHOKINASE [3]: 356.33 u/L | CREATININE [3]: 0.17 mg/dL | GLUCOSE [3]: 141.33 mg/dL | LACTATE DEHYDROGENASE [3]: 488.67 u/L | LIPASE [3]: 10.67 u/L | PHOSPHORUS [3]: 12.43 mg/dL | POTASSIUM [3]: 6.92 MEQ/L | SODIUM [3]: 145.43 MEQ/L | TOTAL BILIRUBIN [3]: 0.2 mg/dL | TOTAL PROTEIN [3]: 6.07 G/DL | URIC ACID [3]: 1.63 mg/dL | ABSOLUTE BASOPHIL [4]: 0 CELLS/uL | ABSOLUTE EOSINOPHIL [4]: 0 CELLS/uL | ABSOLUTE LYMPHOCYTE [4]: 14525.67 CELLS/uL | ABSOLUTE MONOCYTE [4]: 88 CELLS/uL | ABSOLUTE SEGMENTED NEUTROPHIL [4]: 1019.67 CELLS/uL | BASOPHIL [4]: 0% | EOSINOPHIL [4]: 0% | ERYTHROCYTE COUNT [4]: 4.62 x10E6/uL | HEMATOCRIT [4]: 29.8% | HEMOGLOBIN [4]: 12.13 G/DL | LEUKOCYTE COUNT [4]: 15.63 x10E3/uL | LYMPHOCYTE [4]: 94% | MEAN CORPUSCULAR HEMOGLOBIN [4]: 26.43 pg | MEAN CORPUSCULAR HEMOGLOBIN CONCENTRATION [4]: 40.77 G/DL | MEAN CORPUSCULAR VOLUME [4]: 64.9 fL | MONOCYTE [4]: 0.33% | NEUTROPHIL [4]: 5.67% | NUCLEATED RED BLOOD CELLS [4]: 0 /100WBC | PLATELET COUNT [4]: 1090.33 x10E3/uL | ALANINE AMINOTRANSFERASE [4]: 53.33 u/L | ALBUMIN [4]: 4.1 G/DL | ALKALINE PHOSPHATASE [4]: 272.5 u/L | ASPARTATE AMINOTRANSFERASE [4]: 97 u/L | BLOOD UREA NITROGEN [4]: 17 mg/dL | CARBON DIOXIDE [4]: 21 mmol/L | CHLORIDE [4]: 107.5 MEQ/L | CHOLESTEROL [4]: 73 mg/dL | CREATINE PHOSPHOKINASE [4]: 1048.33 u/L | CREATININE [4]: 0.21 mg/dL | GLUCOSE [4]: 149 mg/dL | LACTATE DEHYDROGENASE [4]: 184 u/L | LIPASE [4]: 12 u/L | PHOSPHORUS [4]: 10.23 mg/dL | POTASSIUM [4]: 6.38 MEQ/L | SODIUM [4]: 147.2 MEQ/L | TOTAL BILIRUBIN [4]: 0.2 mg/dL | TOTAL PROTEIN [4]: 5.97 G/DL | URIC ACID [4]: 1.2 mg/dL

— ChEMBL document CHEMBL3885881, “DrugMatrix”
